Data: paper PMC7926623 (Marine Drugs, 2021)

Target: rat α6/α3β2β3 nAChR (Rattus norvegicus, UniProt P04757+P12390+P43143)
Type: cell-based

Chain of rat α6/α3β2β3 nAChR (P04757 whole entry, looked up): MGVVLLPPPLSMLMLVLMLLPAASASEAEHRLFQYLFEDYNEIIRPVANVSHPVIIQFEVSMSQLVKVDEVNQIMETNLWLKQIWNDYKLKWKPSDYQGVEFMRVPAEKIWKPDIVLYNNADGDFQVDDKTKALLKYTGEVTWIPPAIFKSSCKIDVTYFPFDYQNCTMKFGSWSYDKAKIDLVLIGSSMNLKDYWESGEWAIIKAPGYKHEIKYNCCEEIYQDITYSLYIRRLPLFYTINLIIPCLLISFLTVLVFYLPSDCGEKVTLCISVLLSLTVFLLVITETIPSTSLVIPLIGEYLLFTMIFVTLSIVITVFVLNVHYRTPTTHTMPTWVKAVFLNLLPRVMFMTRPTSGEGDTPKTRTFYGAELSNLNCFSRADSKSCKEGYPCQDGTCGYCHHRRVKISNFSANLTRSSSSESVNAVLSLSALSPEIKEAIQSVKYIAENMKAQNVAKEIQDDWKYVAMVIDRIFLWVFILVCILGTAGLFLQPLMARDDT
Chain of rat α6/α3β2β3 nAChR (P12390 whole entry, looked up): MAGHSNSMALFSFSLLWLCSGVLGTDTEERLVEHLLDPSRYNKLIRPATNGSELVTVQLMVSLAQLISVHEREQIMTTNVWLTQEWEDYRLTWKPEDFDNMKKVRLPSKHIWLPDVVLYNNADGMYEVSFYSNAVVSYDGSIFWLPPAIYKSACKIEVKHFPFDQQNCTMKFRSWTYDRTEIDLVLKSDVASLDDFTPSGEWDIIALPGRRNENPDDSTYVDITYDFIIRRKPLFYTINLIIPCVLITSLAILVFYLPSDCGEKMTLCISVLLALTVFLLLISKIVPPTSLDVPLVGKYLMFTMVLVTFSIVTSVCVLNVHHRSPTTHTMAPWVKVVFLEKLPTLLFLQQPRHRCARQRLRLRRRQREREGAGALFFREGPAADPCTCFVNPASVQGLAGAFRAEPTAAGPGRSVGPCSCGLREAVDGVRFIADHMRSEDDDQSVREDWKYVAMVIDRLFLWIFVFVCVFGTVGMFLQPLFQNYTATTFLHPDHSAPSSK
Chain of rat α6/α3β2β3 nAChR (P43143 whole entry, looked up): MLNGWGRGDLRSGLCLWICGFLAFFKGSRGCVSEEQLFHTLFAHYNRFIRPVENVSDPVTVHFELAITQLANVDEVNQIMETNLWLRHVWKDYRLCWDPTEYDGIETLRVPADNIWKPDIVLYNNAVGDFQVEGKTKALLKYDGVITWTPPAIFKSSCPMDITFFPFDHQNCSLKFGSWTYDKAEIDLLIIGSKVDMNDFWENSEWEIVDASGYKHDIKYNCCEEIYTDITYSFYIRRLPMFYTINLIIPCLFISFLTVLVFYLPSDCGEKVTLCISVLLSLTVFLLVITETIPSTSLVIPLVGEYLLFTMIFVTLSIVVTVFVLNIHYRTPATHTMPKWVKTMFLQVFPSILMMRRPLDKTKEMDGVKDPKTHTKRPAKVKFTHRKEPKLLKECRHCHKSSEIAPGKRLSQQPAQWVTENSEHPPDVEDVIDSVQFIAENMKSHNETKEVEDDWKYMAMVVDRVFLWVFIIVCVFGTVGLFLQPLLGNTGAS

Substance: α-Conotoxin TxIB
- inhibition on α6/α3β2β3 nAChR: about 88%
